Data on eleven compounds can be found in the supplement of paper PMC10307832.

What all share (test): relative viability (nuclei count vs DMSO), 5 days (fraction); higher = more cells survive
One experiment has as its system A549. In outline:
(§1)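 Lung cancer cell lines in 1536-well plates got either a single drug or a fixed anchor-drug dose together with five library-drug doses (not always all listed) in √10 steps, by pin tool, on the day after seeding. Nuclei were counted after 5 days, and relative viability is the treated-to-vehicle ratio of nuclei counts. Values are medians of duplicate plates.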

In a further experiment the test system is NCI-H1648. In outline: as §1
The test system of a further experiment is NCI-H661. In a few lines: as §1
Another experiment has as its system IA-LM. In outline: as §1

On to `C[C@@H]1CN(CC(=O)Nc2ccc3c(c2)Cc2cccc(-c4cc(=O)cc(N5CCOCC5)o4)c2S3)C[C@H](C)O1` + Nc1ncn([C@H]2C[C@H](O)[C@@H](CO)O2)c(=O)n1 [Decitabine] (partner 2 µM), for which the relative viability in the experiment on A549 (first compound 0.04 µM) stood at 0.24; with A549 (first compound 0.1265 µM), 0.227; in the experiment on A549 (first compound 0.4 µM), 0.254; with A549 (first compound 4 µM) it was 0.31; with NCI-H1648 (first compound 0.04 µM) it was 0.41; in the experiment on NCI-H1648 (first compound 0.1265 µM), 0.515. In addition, the relative viability was 0.591 in the experiment with NCI-H1648 (first compound 0.4 µM); 0.434 with NCI-H1648 (first compound 4 µM); 0.496 in the experiment on NCI-H661 (first compound 0.04 µM); 0.534 with NCI-H661 (first compound 0.1265 µM); 0.623 in the experiment on NCI-H661 (first compound 0.4 µM); 0.65 with NCI-H661 (first compound 4 µM).

For the compound `CC(C)Oc1cc(Nc2nc(N[C@@H](C)c3ccc(F)cn3)ncc2Cl)n[nH]1` [AZ23] + Nc1nc2[nH]cc(CCc3ccc(C(=O)N[C@@H](CCC(=O)O)C(=O)O)cc3)c2c(=O)[nH]1 [Pemetrexed] (partner 0.2 µM), the relative viability with NCI-H1648 (first compound 0.01 µM) amounted to 0.706; in the experiment on NCI-H1648 (first compound 0.03162 µM) it was 0.632; in the experiment on NCI-H1648 (first compound 0.3162 µM), 0.807; with NCI-H661 (first compound 0.01 µM), 0.864; in the experiment with NCI-H661 (first compound 0.03162 µM), 0.925; in the experiment on NCI-H661 (first compound 0.3162 µM), 0.927.

For the compound `Clc1ccc(Nc2nnc(Cc3ccncc3)c3ccccc23)cc1` [Vatalanib] + O=C(CCCCCCC(=O)Nc1ccccc1)NO [Vorinostat] (partner 1 µM), the relative viability in the experiment with IA-LM (first compound 0.04 µM) worked out at 0.952; in the experiment with IA-LM (first compound 0.1265 µM), 1.24; in the experiment with IA-LM (first compound 0.4 µM), 0.895; in the experiment with IA-LM (first compound 1.265 µM), 0.99; with IA-LM (first compound 4 µM), 0.976; with NCI-H1648 (first compound 0.04 µM) it was 0.32. The relative viability amounted to 0.644 in the experiment on NCI-H1648 (first compound 0.1265 µM); 0.562 in the experiment with NCI-H1648 (first compound 0.4 µM); 0.42 in the experiment on NCI-H1648 (first compound 1.265 µM); 0.444 in the experiment on NCI-H1648 (first compound 4 µM); 0.8 in the experiment with NCI-H661 (first compound 0.04 µM); 0.872 in the experiment on NCI-H661 (first compound 0.1265 µM). The relative viability in the experiment with NCI-H661 (first compound 0.4 µM) was 0.778; in the experiment with NCI-H661 (first compound 1.265 µM), 0.775; in the experiment with NCI-H661 (first compound 4 µM), 0.805.

With `CC(C)Oc1cc(Nc2nc(N[C@@H](C)c3ccc(F)cn3)ncc2Cl)n[nH]1` [AZ23] + CC(=O)c1c(C)c2cnc(Nc3ccc(N4CCNCC4)cn3)nc2n(C2CCCC2)c1=O [Palbociclib] (partner 0.5 µM), the relative viability is 0.227 in the experiment with NCI-H1648 (first compound 0.01 µM); 0.208 with NCI-H1648 (first compound 0.03162 µM); 0.23 in the experiment with NCI-H1648 (first compound 0.3162 µM); 0.367 in the experiment on NCI-H661 (first compound 0.01 µM); 0.391 in the experiment with NCI-H661 (first compound 0.03162 µM); 0.349 in the experiment on NCI-H661 (first compound 0.3162 µM).

Consider `CC(C)Oc1cc(Nc2nc(N[C@@H](C)c3ccc(F)cn3)ncc2Cl)n[nH]1` [AZ23] + CC(=O)Nc1cccc(-n2c(=O)n(C3CC3)c(=O)c3c(Nc4ccc(I)cc4F)n(C)c(=O)c(C)c32)c1 [Trametinib] (partner 0.02 µM), for which the relative viability in the experiment on NCI-H1648 (first compound 0.01 µM) is 0.374; with NCI-H1648 (first compound 0.03162 µM), 0.427; in the experiment on NCI-H1648 (first compound 0.3162 µM), 0.314; with NCI-H661 (first compound 0.01 µM), 0.611; in the experiment with NCI-H661 (first compound 0.03162 µM) it was 0.575; in the experiment with NCI-H661 (first compound 0.3162 µM), 0.547.

On to `CC(C)Oc1cc(Nc2nc(N[C@@H](C)c3ccc(F)cn3)ncc2Cl)n[nH]1` [AZ23] + Nc1ncn([C@H]2C[C@H](O)[C@@H](CO)O2)c(=O)n1 [Decitabine] (partner 2 µM), for which the relative viability in the experiment with A549 (first compound 0.01 µM) was found to be 0.3; in the experiment with A549 (first compound 0.03162 µM), 0.325; in the experiment on A549 (first compound 0.3162 µM), 0.281; in the experiment on NCI-H1648 (first compound 0.01 µM), 0.546; in the experiment on NCI-H1648 (first compound 0.03162 µM), 0.534; in the experiment with NCI-H1648 (first compound 0.3162 µM) it was 0.509. Besides, the relative viability in the experiment with NCI-H661 (first compound 0.01 µM) was 0.556; in the experiment on NCI-H661 (first compound 0.03162 µM), 0.582; in the experiment on NCI-H661 (first compound 0.3162 µM), 0.604.

Consider `COc1cc(N2CCC(C(N)=O)CC2)ccc1Nc1nc(N)c(Cl)c(Nc2ccccc2S(=O)(=O)C(C)C)n1` [HG-5-88-01] + Nc1nc2[nH]cc(CCc3ccc(C(=O)N[C@@H](CCC(=O)O)C(=O)O)cc3)c2c(=O)[nH]1 [Pemetrexed] (partner 0.2 µM), for which the relative viability was found to be 0.772 with NCI-H1648 (first compound 0.04 µM); 0.719 in the experiment with NCI-H1648 (first compound 0.1265 µM); 0.605 in the experiment on NCI-H1648 (first compound 0.4 µM); 0.596 with NCI-H1648 (first compound 1.265 µM); 0.562 in the experiment on NCI-H1648 (first compound 4 µM); 0.909 in the experiment on NCI-H661 (first compound 0.04 µM). Further, the relative viability with NCI-H661 (first compound 0.1265 µM) worked out at 0.931; in the experiment with NCI-H661 (first compound 0.4 µM), 0.883; in the experiment on NCI-H661 (first compound 1.265 µM), 0.974; with NCI-H661 (first compound 4 µM), 0.965.

As to `COc1cc(N2CCC(C(N)=O)CC2)ccc1Nc1nc(N)c(Cl)c(Nc2ccccc2S(=O)(=O)C(C)C)n1` [HG-5-88-01] + Nc1ncn([C@H]2C[C@H](O)[C@@H](CO)O2)c(=O)n1 [Decitabine] (partner 2 µM), the relative viability in the experiment on A549 (first compound 0.04 µM) is 0.296; in the experiment on A549 (first compound 0.1265 µM), 0.34; in the experiment with A549 (first compound 0.4 µM), 0.274; in the experiment with A549 (first compound 1.265 µM), 0.246; with A549 (first compound 4 µM), 0.388; in the experiment with NCI-H1648 (first compound 0.04 µM), 0.5. For the same compound, the relative viability in the experiment with NCI-H1648 (first compound 0.1265 µM) worked out at 0.443; in the experiment with NCI-H1648 (first compound 0.4 µM), 0.457; with NCI-H1648 (first compound 1.265 µM), 0.359; in the experiment with NCI-H1648 (first compound 4 µM), 0.292; in the experiment on NCI-H661 (first compound 0.04 µM), 0.54; with NCI-H661 (first compound 0.1265 µM), 0.595. In addition, the relative viability in the experiment on NCI-H661 (first compound 0.4 µM) was found to be 0.653; with NCI-H661 (first compound 1.265 µM), 0.515; in the experiment on NCI-H661 (first compound 4 µM), 0.56.

Turning to `C[C@@H]1CN(CC(=O)Nc2ccc3c(c2)Cc2cccc(-c4cc(=O)cc(N5CCOCC5)o4)c2S3)C[C@H](C)O1` + CC(=O)Nc1cccc(-n2c(=O)n(C3CC3)c(=O)c3c(Nc4ccc(I)cc4F)n(C)c(=O)c(C)c32)c1 [Trametinib] (partner 0.02 µM), the relative viability amounted to 0.484 with NCI-H1648 (first compound 0.04 µM); 0.435 in the experiment with NCI-H1648 (first compound 0.1265 µM); 0.474 with NCI-H1648 (first compound 0.4 µM); 0.527 in the experiment on NCI-H1648 (first compound 4 µM); 0.481 in the experiment with NCI-H661 (first compound 0.04 µM); 0.552 in the experiment on NCI-H661 (first compound 0.1265 µM). The relative viability with NCI-H661 (first compound 0.4 µM) was 0.615; in the experiment with NCI-H661 (first compound 4 µM) it was 0.507.

As for `C[C@@H]1CN(CC(=O)Nc2ccc3c(c2)Cc2cccc(-c4cc(=O)cc(N5CCOCC5)o4)c2S3)C[C@H](C)O1` + Nc1nc2[nH]cc(CCc3ccc(C(=O)N[C@@H](CCC(=O)O)C(=O)O)cc3)c2c(=O)[nH]1 [Pemetrexed] (partner 0.2 µM), the relative viability was determined as 0.588 with NCI-H1648 (first compound 0.04 µM); 0.801 in the experiment with NCI-H1648 (first compound 0.1265 µM); 0.747 in the experiment with NCI-H1648 (first compound 0.4 µM); 0.64 with NCI-H1648 (first compound 4 µM); 0.969 in the experiment on NCI-H661 (first compound 0.04 µM); 0.904 in the experiment on NCI-H661 (first compound 0.1265 µM). The relative viability with NCI-H661 (first compound 0.4 µM) came to 0.899; in the experiment on NCI-H661 (first compound 4 µM), 0.894.

For the compound `CC(C)Oc1cc(Nc2nc(N[C@@H](C)c3ccc(F)cn3)ncc2Cl)n[nH]1` [AZ23] + O=C(CCCCCCC(=O)Nc1ccccc1)NO [Vorinostat] (partner 1 µM), the relative viability in the experiment with IA-LM (first compound 0.01 µM) amounted to 0.895; in the experiment on IA-LM (first compound 0.03162 µM) it was 1.05; in the experiment with IA-LM (first compound 0.3162 µM) it was 1.06; in the experiment on NCI-H1648 (first compound 0.01 µM), 0.373; with NCI-H1648 (first compound 0.03162 µM) it was 0.567; in the experiment with NCI-H1648 (first compound 0.3162 µM), 0.316. The relative viability in the experiment with NCI-H661 (first compound 0.01 µM) came out at 0.814; in the experiment on NCI-H661 (first compound 0.03162 µM), 0.769; with NCI-H661 (first compound 0.3162 µM) it was 0.87.
